Source: ChEMBL document CHEMBL5380791, “Modular Biomimetic Strategy Enabled Discovery of Simplified Pseudo-Natural Macrocyclic P-Glycoprotein Inhibitors Capable of Overcoming Multidrug Resistance” (J Med Chem, 2023)
The source made the active and inactive calls. The rule behind the calls is not given here.

Key:
KBv200 [1] = experiment: Reversal of vinorelbine resistance in human KBv200 cells assessed as reduction in cell viability incubated for 72 hrs in presence of vinorelbine (reference value: 224 to 228.30 nM); format: functional, cell-based; details: KBv200, 72 h
KBv200 [2] = experiment: Reversal fold, ratio of vinorelbine IC50 for cytotoxicity against human KBv200 cells over test compound IC50 for reversal of vinorelbine resistance in human KBv200 cells; format: functional
KBv200 [3] = experiment: Reversal of paclitaxel resistance in human KBv200 cells assessed as reduction in cell viability incubated for 72 hrs in presence of paclitaxel (reference value: 392.9+/-196.5 nM); format: functional, cell-based; details: KBv200, 72 h
KBv200 [4] = experiment: Reversal of adriamycin resistance in human KBv200 cells assessed as reduction in cell viability incubated for 72 hrs in presence of adriamycin (reference value: 1291.2+/-308.9 nM); format: functional, cell-based; details: KBv200, 72 h
KB = experiment: Reversal of vinorelbine resistance in human KB cells assessed as reduction in cell viability incubated for 72 hrs in presence of vinorelbine (reference value: 7.4+/-2.2 nM); format: functional, cell-based
K562/Adr = experiment: Reversal of vinorelbine resistance in human K562/Adr cells assessed as reduction in cell viability incubated for 72 hrs in presence of vinorelbine (reference value: 7320.6+/-2115.2 nM); format: functional, cell-based
K562 = experiment: Reversal of vinorelbine resistance in human K562 cells assessed as reduction in cell viability incubated for 72 hrs in presence of vinorelbine (reference value: 5.9+/-0.2 nM); format: functional, cell-based; details: K562, 72 h
NCI/ADR-RES = experiment: Reversal of vinorelbine resistance in human NCI/ADR-RES cells assessed as reduction in cell viability incubated for 72 hrs in presence of vinorelbine (reference value: 6125.7+/-3267.7 nM); format: functional, cell-based
OVCAR-8 = experiment: Reversal of vinorelbine resistance in human OVCAR-8 cells assessed as reduction in cell viability incubated for 72 hrs in presence of vinorelbine (reference value: 16.2+/-4.7 nM); format: functional, cell-based; details: OVCAR-8, 72 h
KBv200 [5] = experiment: Antitumor activity against human KBv200 cells xenografted in Balb/cA nude mouse assessed as mean tumor volume at 8 mg/kg, iv administered as single dose and measured on day 0; format: functional
KBv200 [6] = experiment: Antitumor activity against human KBv200 cells xenografted in Balb/cA nude mouse assessed as mean tumor volume at 8 mg/kg, iv q4d administered for 13 days; format: functional; details: time 13 day
KBv200 [7] = experiment: Antitumor activity against human KBv200 cells xenografted in Balb/cA nude mouse assessed as T/C ratio at 8 mg/kg, iv q4d administered for 13 days; format: functional; details: time 13 day
KBv200 [8] = experiment: Antitumor activity against human KBv200 cells xenografted in Balb/cA nude mouse assessed as tumor growth inhibition at 8 mg/kg, iv q4d administered for 13 days; format: functional; details: KBv200, 312 h, time 13 day
[9] = Toxicity in Balb/cA nude mouse xenografted with human KBv200 cells assessed as changes in body weight at 75 mg/kg, ip qd administered for 13 days in presence of vinorelbine; format: organism-based; details: in vivo, 312 h, time 13 day
[10] = Toxicity in Balb/cA nude mouse xenografted with human KBv200 cells assessed as mortality at 75 mg/kg, ip qd administered for 13 days in presence of vinorelbine; format: organism-based; details: in vivo, 312 h, time 13 day
KBv200 [11] = experiment: Induction of apoptosis in human KBv200 cells assessed as increase in cleaved PARP level at 5 uM incubated for 24 hrs by Western blotting analysis; format: functional, cell-based
KBv200 [12] = experiment: Induction of apoptosis in human KBv200 cells assessed as increase in cleaved caspase 3 level at 5 uM incubated for 24 hrs by Western blotting analysis; format: functional, cell-based
KBv200 [13] = experiment: Induction of apoptosis in human KBv200 cells assessed as increase in cleaved caspase 9 level at 5 uM incubated for 24 hrs by Western blotting analysis; format: functional, cell-based

SMILES: CC(C)[C@H]1NC(=O)/C(c2cccc3ccccc23)=C\C=C(\c2ccccc2)CNC(=O)CCCCCCCCCCCNC1=O
- IC50 (KBv200 [1]; read-out: IC50): 0.21 nM
- Ratio IC50 (KBv200 [2]): 1291

SMILES: CC(C)[C@@H]1NC(=O)/C(c2cccc3ccccc23)=C\C=C(\c2ccccc2)CNC(=O)CCCCCCCCCCCNC1=O
- IC50 (KBv200 [1]; read-out: IC50): 0.3 nM
- Ratio IC50 (KBv200 [2]): 761

SMILES: CC(C)[C@@H]1NC(=O)/C(c2ccccc2)=C/C=C(/c2ccccc2)CNC(=O)CCCCCCCNC1=O
- IC50 (KBv200 [1]; read-out: IC50): 46.6 nM
- Ratio IC50 (KBv200 [2]): 5

SMILES: COc1ccc(CCN(C)CCCC(C#N)(c2ccc(OC)c(OC)c2)C(C)C)cc1OC (stereo not drawn) [VERAPAMIL]
- IC50 (KBv200 [1]): 6.96 nM
- Ratio IC50 (KBv200 [2]): 33
- IC50 (KBv200 [3]): 18.2 nM
- IC50 (KBv200 [4]): 145 nM
- IC50 (KB): 4.4 nM
- IC50 (K562/Adr): 446 nM
- IC50 (K562): 4.3 nM
- IC50 (NCI/ADR-RES): 289 nM
- IC50 (OVCAR-8): 8.5 nM

SMILES: CC(C)[C@@H]1NC(=O)C(c2ccccc2)CCC(c2ccccc2)CNC(=O)CCCCCCCCCCCNC1=O (stereo partly drawn)
- IC50 (KBv200 [1]; read-out: IC50): 3.58 nM
- Ratio IC50 (KBv200 [2]): 64

SMILES: COc1ccc(/C2=C/C=C(/c3ccccc3)CNC(=O)CCCCCCCCCCCNC(=O)[C@H](C(C)C)NC2=O)cc1OC
- IC50 (KBv200 [1]; read-out: IC50): 3.65 nM
- Ratio IC50 (KBv200 [2]): 63

SMILES: O=C1CCCCCCCCCCCNC(=O)[C@H](Cc2cn([C@@H]3O[C@H](CO)[C@@H](O)[C@H](O)[C@H]3O)nn2)NC(=O)/C(c2ccccc2)=C\C=C(\c2ccccc2)CN1
- IC50 (KBv200 [1]; read-out: IC50): 169 nM
- Ratio IC50 (KBv200 [2]): 1.3

SMILES: C#CC[C@@H]1NC(=O)/C(c2ccccc2)=C\C=C(\c2ccccc2)CNC(=O)CCCCCCCCCCCNC1=O
- IC50 (KBv200 [1]; read-out: IC50): 3.64 nM
- Ratio IC50 (KBv200 [2]): 63

SMILES: CC(C)[C@@H]1NC(=O)/C(c2ccccc2)=C\C=C(\c2ccccc2)CNC(=O)CCCCCCCCCCCNC1=O
- IC50 (KBv200 [1]; read-out: IC50): 1.19 nM
- Ratio IC50 (KBv200 [2]): 192

SMILES: CC(C)C[C@@H]1NC(=O)/C(c2ccccc2)=C\C=C(\c2ccccc2)CNC(=O)CCCCCCCCCCCNC1=O
- IC50 (KBv200 [1]; read-out: IC50): 0.55 nM
- Ratio IC50 (KBv200 [2]): 415

SMILES: CC(C)[C@H](NC(=O)/C(=C/C=C(/CNC(=O)CCCCCCCCCCCN)c1ccccc1)c1ccccc1)C(=O)O
- IC50 (KBv200 [1]; read-out: IC50): 199 nM
- Ratio IC50 (KBv200 [2]): 1.1

SMILES: COc1ccc(/C2=C/C=C(/c3ccccc3)C(=O)N[C@@H](C(C)C)C(=O)NCCCCCCCCCCCC(=O)NC2)cc1
- IC50 (KBv200 [1]; read-out: IC50): 1.54 nM
- Ratio IC50 (KBv200 [2]): 148

SMILES: CCC1=C[C@@H]2CN(C1)Cc1c([nH]c3ccccc13)[C@@](C(=O)OC)(c1cc3c(cc1OC)N(C)[C@H]1[C@@](O)(C(=O)OC)[C@H](OC(C)=O)[C@]4(CC)C=CCN5CC[C@]31[C@@H]54)C2 [VINORELBINE]
- Activity (KBv200 [5]): 122.3 mm3
- Activity (KBv200 [6]): 1727.4 mm3
- T/C (KBv200 [7]): 82%
- inhibition in vivo at 8 mg/kg (KBv200 [8]): 18%
- Activity [9]: Non-Toxic
- Activity [10]: Non-Toxic
- Activity (KBv200 [11]): inactive
- Activity (KBv200 [12]): inactive
- Activity (KBv200 [13]): inactive

SMILES: O=C1CCCCCCCCCCCNC(=O)[C@@H]2CCCN2C(=O)/C(c2ccccc2)=C\C=C(\c2ccccc2)CN1
- IC50 (KBv200 [1]; read-out: IC50): 8.63 nM
- Ratio IC50 (KBv200 [2]): 26

SMILES: COc1ccc(/C2=C/C=C(/c3ccccc3)CNC(=O)CCCCCCCCCCCNC(=O)[C@H](C(C)C)NC2=O)cc1
- IC50 (KBv200 [1]; read-out: IC50): 0.44 nM
- Ratio IC50 (KBv200 [2]): 519

SMILES: CC(C)[C@@H]1NC(=O)/C(c2ccccc2)=C\C=C(\c2ccccc2)CNC(=O)CCOCCOCCOCCNC1=O
- IC50 (KBv200 [1]; read-out: IC50): 127 nM
- Ratio IC50 (KBv200 [2]): 1.8

SMILES: CC(=O)N[C@@H]1[C@@H](OC(C)=O)[C@H](OC(C)=O)[C@@H](COC(C)=O)O[C@H]1n1cc(C[C@@H]2NC(=O)/C(c3ccccc3)=C\C=C(\c3ccccc3)CNC(=O)CCCCCCCCCCCNC2=O)nn1
- IC50 (KBv200 [1]; read-out: IC50): 248 nM
- Ratio IC50 (KBv200 [2]): 0.9

SMILES: O=C1CCCCCCCCCCCNC(=O)CNC(=O)/C(c2ccccc2)=C\C=C(\c2ccccc2)CN1
- IC50 (KBv200 [1]; read-out: IC50): 24.5 nM
- Ratio IC50 (KBv200 [2]): 9

SMILES: O=C1CCCCCCCCCCCNC(=O)[C@H](Cc2cn([C@@H]3O[C@H](CO)[C@H](O)[C@H](O)[C@H]3O)nn2)NC(=O)/C(c2ccccc2)=C\C=C(\c2ccccc2)CN1
- IC50 (KBv200 [1]; read-out: IC50): 140 nM
- Ratio IC50 (KBv200 [2]): 1.6

SMILES: CC(C)C1NC(=O)/C(c2ccccc2)=C\C=C(\c2ccccc2)CNC(=O)CCCCCCCCCCCNC1=O (stereo not drawn)
- IC50 (KBv200 [1]; read-out: IC50): 1.13 nM
- Ratio IC50 (KBv200 [2]): 202

SMILES: NCCCC[C@@H]1NC(=O)/C(c2ccccc2)=C\C=C(\c2ccccc2)CNC(=O)CCCCCCCCCCCNC1=O
- IC50 (KBv200 [1]; read-out: IC50): 289 nM
- Ratio IC50 (KBv200 [2]): 0.8

SMILES: CC(C)[C@@H]1NC(=O)/C(c2ccccc2)=C\C=C/CNC(=O)CCCCCCCCCCCNC1=O
- IC50 (KBv200 [1]; read-out: IC50): 3.76 nM
- Ratio IC50 (KBv200 [2]): 61

SMILES: CSCC[C@@H]1NC(=O)/C(c2ccccc2)=C\C=C(\c2ccccc2)CNC(=O)CCCCCCCCCCCNC1=O
- IC50 (KBv200 [1]; read-out: IC50): 1.24 nM
- Ratio IC50 (KBv200 [2]): 184

SMILES: O=C1CCCCCCCCCCCNC(=O)[C@H](Cc2c[nH]c3ccccc23)NC(=O)/C(c2ccccc2)=C\C=C(\c2ccccc2)CN1
- IC50 (KBv200 [1]; read-out: IC50): 140 nM
- Ratio IC50 (KBv200 [2]): 2

SMILES: O=C1CCCCCCCCCCCNC(=O)[C@H](Cc2ccc(O)cc2)NC(=O)/C(c2ccccc2)=C\C=C(\c2ccccc2)CN1
- IC50 (KBv200 [1]; read-out: IC50): 1.76 nM
- Ratio IC50 (KBv200 [2]): 130

SMILES: CC(=O)N[C@@H]1[C@@H](O)[C@H](O)[C@@H](CO)O[C@H]1n1cc(C[C@@H]2NC(=O)/C(c3ccccc3)=C\C=C(\c3ccccc3)CNC(=O)CCCCCCCCCCCNC2=O)nn1
- IC50 (KBv200 [1]; read-out: IC50): 152 nM
- Ratio IC50 (KBv200 [2]): 1.5

SMILES: CC(C)[C@@H]1NC(=O)/C(c2ccccc2)=C\C=C(\c2ccc(F)cc2)CNC(=O)CCCCCCCCCCCNC1=O
- IC50 (KBv200 [1]; read-out: IC50): 0.42 nM
- Ratio IC50 (KBv200 [2]): 543

SMILES: O=C1CCCCCCCCCCCNC(=O)[C@H](Cc2ccccc2)NC(=O)/C(c2cccc3ccccc23)=C\C=C(\c2ccccc2)CN1
- IC50 (KBv200 [1]; read-out: IC50): 0.05 nM
- Ratio IC50 (KBv200 [2]): 4566

SMILES: O=C1CCCCCCCCCCCNC(=O)[C@H](Cc2ccccc2)NC(=O)/C(c2ccccc2)=C\C=C(\c2ccccc2)CN1
- IC50 (KBv200 [1]; read-out: IC50): 0.38 nM
- Ratio IC50 (KBv200 [2]): 601

SMILES: CC(C)[C@@H]1NC(=O)/C(c2ccccc2)=C\C=C(\c2ccccc2)CNC(=O)CCCCCCCCCNC1=O
- IC50 (KBv200 [1]; read-out: IC50): 4.57 nM
- Ratio IC50 (KBv200 [2]): 50

SMILES: NC(=O)CC[C@@H]1NC(=O)/C(c2ccccc2)=C\C=C(\c2ccccc2)CNC(=O)CCCCCCCCCCCNC1=O
- IC50 (KBv200 [1]; read-out: IC50): 210 nM
- Ratio IC50 (KBv200 [2]): 1

SMILES: CC(C)[C@@H]1NC(=O)/C(c2ccc(Br)cc2)=C\C=C(\c2ccccc2)CNC(=O)CCCCCCCCCCCNC1=O
- IC50 (KBv200 [1]; read-out: IC50): 0.4 nM
- Ratio IC50 (KBv200 [2]): 570
